Experimental data taken from article PMC10145285, “Diverse Biological Activity of Benzofuroxan/Sterically Hindered Phenols Hybrids” (Pharmaceuticals, 2023).
Converted amounts (≈) assume the structure as drawn. Where two headings read alike, the source gives them in different places.

Experiments:
[1] = system: MCF-7; assay: cells; assay type: cell-based, human; conditions: Homo sapiens, read-out: IC50, MCF-7
[2] = system: Staphylococcus aureus ATCC 6538P FDA 209P (Sa); assay: Antimicrobial serial microdilution, Sa; assay type: cell-based
[3] = system: Bacillus cereus ATCC 10702 (Bc); assay: Antimicrobial serial microdilution, Bc; assay type: cell-based
[4] = system: Enterococcus faecalis ATCC 29212 (Ef); assay: Antimicrobial serial microdilution, Ef; assay type: cell-based
[5] = system: MRSA-1; assay: Antimicrobial serial microdilution, MRSA-1; assay type: cell-based, Staphylococcus aureus
[6] = system: MRSA-2; assay: Antimicrobial serial microdilution, MRSA-2; assay type: cell-based, Staphylococcus aureus
[7] = system: HuTu 80; assay: cells; conditions: Homo sapiens, HuTu80, 48 h, read-out: IC50, HuTu 80
[8] = system: M-HeLa; assay: cells; conditions: Homo sapiens, 48 h, read-out: IC50, M-HeLa
[9] = system: Chang Liver; assay: cells; conditions: Homo sapiens, 48 h, read-out: IC50, Chang Liver
[10] = system: PC3; assay: cells; assay type: cell-based; conditions: Homo sapiens, read-out: IC50, PC3
[11] = system: T98G; assay: cells; assay type: cell-based; conditions: Homo sapiens, 48 h, read-out: IC50, T98G
[12] = system: A375; assay: cells; assay type: cell-based; conditions: Homo sapiens, read-out: IC50, A375
[13] = system: WI38; assay: cells; assay type: cell-based; conditions: Homo sapiens, read-out: IC50, WI38
[14] = system: PANC-1; assay: cells; conditions: Homo sapiens, PANC-1, 48 h, read-out: IC50, PANC-1
[15] = system: A549; assay: cells; conditions: Homo sapiens, A549, 48 h, read-out: IC50, A549
[16] = serial microdilution, strain resistant to β-lactams and fluoroquinolones
[17] = serial microdilution, strain resistant only to β-lactams
[18] = A-375, cancer cell line, 48 h incubation, MTT
[19] = WI-38, normal cell line, 48 h incubation, MTT
[20] = serial microdilution, Mueller-Hinton broth

Row | SMILES | IC50 ([1]; MCF7, 48 h) [µM] | Minimum Inhibitory Concentration (MIC), Sa [2] | Minimum Inhibitory Concentration (MIC), Bc [3] | Minimum Inhibitory Concentration (MIC), Ef [4] | IC50 [7] [µM] | IC50 [8] [µM] | IC50 [9] [µM] | IC50 ([10]; PC-3, 48 h) [µM] | IC50 [11] [µM] | IC50 ([12]; A-375, 48 h) [µM] | IC50 ([13]; WI-38, 48 h) [µM] | IC50 [14] [µM] | IC50 [15] [µM] | also measured
1 | COP(=O)(OC)C(c1cc(C(C)(C)C)c(O)c(C(C)(C)C)c1)c1ccc(N)nc1N (stereo not drawn) [2a] | 31 ± 2.6 | - | - | - | > 100 | 16.1 ± 1.3 | > 100 |  |  |  |  |  |  | Minimum Inhibitory Concentration (MIC), MRSA-1 [5, 16]: -; Minimum Inhibitory Concentration (MIC), MRSA-2 [6, 17]: -
2 | CCOP(=O)(OCC)C(c1cc(C(C)(C)C)c(O)c(C(C)(C)C)c1)c1ccc(N)nc1N (stereo not drawn) [2b] | 34.2 ± 3 |  |  |  | 86.6 ± 6.8 | 17.1 ± 1.3 | > 100 |  |  |  |  |  |  | 
3 | CC(C)OP(=O)(OC(C)C)C(c1cc(C(C)(C)C)c(O)c(C(C)(C)C)c1)c1ccc(N)nc1N (stereo not drawn) [2c] | 21.8 ± 1.7 | - | - | - | > 100 | 38 ± 2.8 | > 100 |  |  |  |  |  |  | Minimum Inhibitory Concentration (MIC), MRSA-1 [5, 16]: -; Minimum Inhibitory Concentration (MIC), MRSA-2 [6, 17]: -
4 | CC(C)(C)c1cc(C(c2ccc(N)nc2N)P(=O)(Oc2ccccc2)Oc2ccccc2)cc(C(C)(C)C)c1O (stereo not drawn) [2d] | 16 ± 1.2 | - | - | - | 63.2 ± 5.6 | 7.4 ± 0.7 | 52 ± 3.5 |  |  |  |  |  |  | Minimum Inhibitory Concentration (MIC), MRSA-1 [5]: -; Minimum Inhibitory Concentration (MIC), MRSA-2 [6]: -
5 | COP(=O)(OC)C(c1cc(C(C)(C)C)c(O)c(C(C)(C)C)c1)c1ccc(N)cc1N (stereo not drawn) [2e] | > 100 |  |  |  |  | 45.3 ± 3.2 | > 100 |  |  |  |  |  |  | 
6 | COP(=O)(OC)C(c1cc(C(C)(C)C)c(O)c(C(C)(C)C)c1)c1ccc(Nc2c([N+](=O)[O-])cc([N+](=O)[O-])c3no[n+]([O-])c23)nc1N (stereo not drawn) [4a, 7-((6-amino-5-((3,5-di-tert-butyl-4-hydroxyphenyl)(dimethoxyphosphoryl)methyl)pyridin-2-yl)amino)-4,6-dinitrobenzo[c][1,2,5]oxadiazole 1-oxide] | 7.6 ± 0.6 | - | - | - | 5.2 ± 0.4 | 4.2 ± 0.3 | 12 ± 1.2 | 14 ± 1.2 | 12.4 ± 1.2 | 13.5 ± 1.2 | 7.2 ± 0.6 | 20 ± 1.7 | 13.5 ± 1.2 | Minimum Inhibitory Concentration (MIC), MRSA-1 [5]: -; Minimum Inhibitory Concentration (MIC), MRSA-2 [6]: -
7 | CCOP(=O)(OCC)C(c1cc(C(C)(C)C)c(O)c(C(C)(C)C)c1)c1ccc(Nc2c([N+](=O)[O-])cc([N+](=O)[O-])c3no[n+]([O-])c23)nc1N (stereo not drawn) [4b, 7-((6-amino-5-((3,5-di-tert-butyl-4-hydroxyphenyl)(diethoxyphosphoryl)methyl)pyridin-2-yl)amino)-4,6-dinitrobenzo[c][1,2,5]oxadiazole 1-oxide] | 3.1 ± 0.2 |  |  |  | 5.4 ± 0.3 | 2.9 ± 0.2 | 7 ± 1.5 | 11 ± 0.8 | 8.3 ± 0.7 | 11.4 ± 0.9 | 5.3 ± 0.4 | 5.3 ± 0.4 | 9.3 ± 0.8 | 
8 | CC(C)(C)c1cc(C(c2ccc(Nc3c([N+](=O)[O-])cc([N+](=O)[O-])c4no[n+]([O-])c34)nc2N)P(=O)(Oc2ccccc2)Oc2ccccc2)cc(C(C)(C)C)c1O (stereo not drawn) [4d, 7-((6-amino-5-((3,5-di-tert-butyl-4-hydroxyphenyl)(diphenoxyphosphoryl)methyl)pyridin-2-yl)amino)-4,6-dinitrobenzo[c][1,2,5]oxadiazole 1-oxide] | 9 ± 0.7 | - | - | - | 13.1 ± 1.1 | 6.3 ± 0.5 | 21 ± 2.4 | 11.3 ± 0.9 | 7.9 ± 0.7 | 17 ± 1.4 | 11.3 ± 1.1 | 11.9 ± 0.9 | 9 ± 0.7 | Minimum Inhibitory Concentration (MIC), MRSA-1 [5]: -; Minimum Inhibitory Concentration (MIC), MRSA-2 [6]: -
9 | COP(=O)(OC)C(c1cc(C(C)(C)C)c(O)c(C(C)(C)C)c1)c1ccc(Nc2c([N+](=O)[O-])cc([N+](=O)[O-])c3no[n+]([O-])c23)cc1N (stereo not drawn) [4e, 7-((3-amino-4-((3,5-di-tert-butyl-4-hydroxyphenyl)(dimethoxyphosphoryl)methyl)phenyl)amino)-4,6-dinitrobenzo[c][1,2,5]oxadiazole 1-oxide] | 21.5 ± 1.8 |  |  |  | 17.1 ± 1.3 | 12 ± 1 | 14.3 ± 1.3 | 12.3 ± 1.1 | 40.2 ± 3.1 | 53.1 ± 4.1 | 25.7 ± 2.2 | 17.4 ± 1.3 | 48.3 ± 3.7 | 
10 | O=C(N[C@H](CO)[C@H](O)c1ccc([N+](=O)[O-])cc1)C(Cl)Cl [Chloramphenicol, reference compound] |  |  |  |  |  |  |  |  |  |  |  |  |  | MIC ([2]; Staphylococcus aureus, serial microdilution, Mueller-Hinton broth, read-out: Minimum Inhibitory Concentration (MIC), Sa): 31.3 ± 2.2 µg/mL (≈ 96.9 µM); Minimum bactericidal and fungicidal concentrations (MBC), (MFC), Sa ([2]; serial microdilution): -; MIC ([3]; Bacillus cereus, ATCC10702, serial microdilution, Mueller-Hinton broth, read-out: Minimum Inhibitory Concentration (MIC), Bc): 62.5 ± 5.4 µg/mL (≈ 193 µM); Minimum bactericidal and fungicidal concentrations (MBC), (MFC), Bc ([3]; serial microdilution): -; MIC ([4]; Enterococcus faecalis, ATCC29212, serial microdilution, Mueller-Hinton broth, read-out: Minimum Inhibitory Concentration (MIC), Ef): 62.5 ± 5.2 µg/mL (≈ 193 µM); Minimum bactericidal and fungicidal concentrations (MBC), (MFC), Ef ([4]; serial microdilution): -; Minimum bactericidal and fungicidal concentrations (MBC), (MFC), MRSA-1 ([5]; serial microdilution): -; Minimum bactericidal and fungicidal concentrations (MBC), (MFC), MRSA-2 ([6]; serial microdilution): -
11 | COc1cccc2c1C(=O)c1c(O)c3c(c(O)c1C2=O)C[C@@](O)(C(=O)CO)C[C@@H]3O[C@H]1C[C@H](N)[C@H](O)[C@H](C)O1 [DOX, doxorubicin, reference compound] |  |  |  |  | 0.2 ± 0.01 | 2.1 ± 0.2 | 0.5 ± 0.04 |  | 2 ± 0.1 |  |  | 2.2 ± 0.1 | 0.7 ± 0.05 | IC50 ([1]; MCF7, cancer cell line, 48 h incubation, MTT): 0.4 ± 0.03 µM; IC50 [12, 18]: 0.3 ± 0.02 µM; IC50 [13, 19]: 0.4 ± 0.02 µM
12 | CC(=O)N1CCN(c2ccc(OCC3COC(Cn4ccnc4)(c4ccc(Cl)cc4Cl)O3)cc2)CC1 (stereo not drawn) [Ketoconazole, reference compound] |  |  |  |  |  |  |  |  |  |  |  |  |  | Minimum bactericidal and fungicidal concentrations (MBC), (MFC), Sa ([2]; serial microdilution): -; Minimum Inhibitory Concentration (MIC), Sa [2, 20]: -; Minimum bactericidal and fungicidal concentrations (MBC), (MFC), Bc ([3]; serial microdilution): -; Minimum Inhibitory Concentration (MIC), Bc [3, 20]: -; Minimum bactericidal and fungicidal concentrations (MBC), (MFC), Ef ([4]; serial microdilution): -; Minimum Inhibitory Concentration (MIC), Ef [4, 20]: -; Minimum bactericidal and fungicidal concentrations (MBC), (MFC), MRSA-1 ([5]; serial microdilution): -; Minimum Inhibitory Concentration (MIC), MRSA-1 [5, 16]: -; Minimum bactericidal and fungicidal concentrations (MBC), (MFC), MRSA-2 ([6]; serial microdilution): -; Minimum Inhibitory Concentration (MIC), MRSA-2 [6, 17]: -
13 | CNC(=O)c1cc(Oc2ccc(NC(=O)Nc3ccc(Cl)c(C(F)(F)F)c3)cc2)ccn1 [SF, sorafenib, reference compound] |  |  |  |  |  |  |  |  | 8.6 ± 0.7 |  |  | 12 ± 1.1 | 25.2 ± 2.2 | IC50 ([10]; PC-3, cancer cell line, 48 h incubation, MTT): 11.3 ± 0.9 µM; IC50 [12, 18]: 6.8 ± 0.5 µM; IC50 [13, 19]: 6.6 ± 0.5 µM
